These results are taken from patent US8575376B2, “Steroide anionic compounds, method of their production, usage and pharmaceutical preparation involving them” (Ustav Organicke Chemie A Biochemie Akademie Ved Ceske …, priority 2009, dated 2013).

Like-named read-outs stand apart in the source and are kept apart here.

The nature of series [1]: Pharmacokinetics in plasma and brain after i.p. injection. In kind it is in vivo, rat. How it is done:
In the experiment 40 adult Long-Evans male rats from breeding colony of Institute of Physiology AS CR v.v.i., Prague were used. Rats were treated i.p. with a dose 1 mg/kg of compound from example 9 dissolved in 72 mM of hydroxypropyl-β-cyclodextrine saline solution. Brain and plasma was taken 5 min, 15 min, 30 min, 45 min, 60 min, 90 min, 120 min, 180 min, 24 hours and 48 hours after drug administration. Each brain and blood samples were taken from separate rat. Samples were collected in 4 rats for each time interval. Samples were immediately stored in a −80° C. freezer.
The concentrations of compound from example 9 in rat brain and plasma samples were measured by high performance liquid chromatography (HPLC) coupled with mass spectrometry (Agilent 6320 Ion Trap). Deuteried internal standard (3-d labeled compound from example 9) has been used for ensuring high accuracy of measurement.

For a further series, the system named is rats. The experiment in a line: Active allothetic place avoidance (AAPA) task, compound applied alone. In kind it is in vivo, rat. The following applies: Example 9 1 and 10 mg/kg s.c., dizocilpine 0.1-0.3 mg/kg i.p. How it is done:
The effect of compound from Example 9 on cognitive behaviors and locomotion was assessed using active allothetic place avoidance (AAPA) task, which requires intact hippocampi and ability of animals to navigate in space using distinct reference frames (spatial navigation and “cognitive coordination”) (Wesierska et al., 2005) and it also allows measuring changes in the accompanying locomotor activity. AAPA task training involves animals trained to move over a slowly rotating uniform circular arena, on which a prohibited sector is defined, entering which is punished by a mild footshock. A shock sector and its position can be determined solely by its relationship to distal orienting cues in the room (Stuchlik et al., 2008).
This task is highly dependent upon hippocampal formation, with unilateral reversible ablation of this structure with TTX leading to avoidance deficit (Cimadevilla et al., 2001). Animals solving this task should walk in a direction opposite to arena rotation; otherwise it would be repeatedly brought to a fixed sector by arena rotation. We conducted 4 acquisition session of AAPA task, during which the sector location was always reinforced and remained stable throughout the training. Each session lasted 20 min.
Control animals obtained saline intraperitoneally (i.p.) whilst experimental groups received subcutaneous (s.c.) injections of the compound from Example 9 at doses 1 mg/kg and 10 mg/kg (dissolved in cyclodextrin). Solution of compound from Example 9 (1 mg/2 ml or 10 mg/2 ml in cyclodextrin) was applied s.c. at a volume 2 ml/kg of body weight (b.w.). Intraperitonal application of dizocilpine (a non-competitive NMDA receptor antagonist; showing significant neuroprotective activity but exerting cognition-disturbing and psychotomimetic effects) was used as a positive control. Dizocilpine was applied at doses 0.1 mg/kg, 0.2 mg/kg and 0.3 mg/kg. It is worth noting that dizocilpine (albeit its experimental neuroprotective activity) is often used to model schizophrenia-like behaviors in […] and it has been repeatedly shown to exert a dose-dependent learning deficit and hyperlocomotion.

The mark [2] stands for this setting: rat, 1 mg/kg i.p., mean of 4 rats.

In general, Tmax refers to the time at which the peak concentration occurs. The Cmax is the maximum level reached in the sampled fluid or tissue. The half-life is how long it takes for the measured level to halve. For the compound `CC(=O)[C@H]1CC[C@H]2[C@@H]3CC[C@@H]4C[C@H](OC(=O)[C@@H](N)CCC(=O)O)CC[C@]4(C)[C@H]3CC[C@]12C` [Example 9, 20-Oxo-5β-pregnan-3α-yl L-glutamyl 1-ester], in series [1] (male, Long-Evans, brain, ip, rat, 1 mg/kg i.p., read-out: Tmax in brain (converted)), the Tmax is 1 h. The same compound registered a Cmax in series [1] (male, Long-Evans, plasma, ip, rat, 1 mg/kg i.p.) of 675 ng/mL. Further, the time to peak (Tmax) in series [1] (male, Long-Evans, plasma, ip, rat, 1 mg/kg i.p., read-out: Tmax in plasma (converted)) is 0.25 h. The half-life in series [1] (male, Long-Evans, rat, intraperitoneal, 1 mg/kg, plasma, estimated) is 4.45 h. Besides, in series [1] (male, Long-Evans, rat, ip, 1 mg/kg, plasma, estimated, read-out: AUC0_inf i.p. (converted)), the AUC is 1260 ng·h/mL. In addition, in series [1] (plasma, estimated), the Ke was 0.002593. Besides, in series [1] (rat, 1 mg/kg i.p.), the “accumulation in brain tissue” value was “not cumulated in brain tissue”, the “blood brain barrier penetration” value was “penetrates blood brain barrier” and the cmax in brain came out at 508 ng/whole brain. In series [1] (setting [2]), the “brain level after 2 hours” value came out at 222 ng/whole brain, the “brain level after 3 hours” value was 128 ng/whole brain, the “brain level after 24 hours” value is listed as 14 ng/whole brain and the “brain level after 48 hours” value was determined as 0.6 ng/whole brain. In the series with rats, the “maximum time avoided in AAPA” value was “did not significantly impaired cognitive performance compared to control animals” and the “number of entrances into shock sector in AAPA” value is reported as “neither of doses of compound from Example 9 caused worsening in this parameter”. Further, in the series with rats (20-min sessions), the “total distance traveled in AAPA (locomotor activity)” value is given as “failed to exhibit either decrease or increase in total distance compared to controls”.
